Laboratory results as given in patent US20080025960A1, “Detergents with stabilized enzyme systems” (priority 2006, published 2008).

Legend:
Assay type in all cases: biochemical
[1] = target: T1, glucose oxidase (Aspergillus niger, UniProt P13006); experiment: Hydrogen peroxide generation by glucose oxidase after dilution of the mixture in laundry wash liquor, dipsticks; settings: for Hydrogen Peroxide Generation, PPM H2O2 / H2O2 PPM: wash liquor, 1 mM glucose; for Hydrogen Peroxide Generation, PPM H2O2: 1 PPM oxidase; for character of glucose oxidase inhibition: inhibited at high substrate concentration in detergent, inhibition disappears upon dilution in wash water, concentration-dependent; for hydrogen peroxide produced: liquid detergent formulations after 3 weeks of storage with inhibitor, diluted in wash liquor; for H2O2 generated: wash liquor control containing buffer
T1 construct: purchased Genencor OXYGO L-5000
T1 sequence (P13006 17-605): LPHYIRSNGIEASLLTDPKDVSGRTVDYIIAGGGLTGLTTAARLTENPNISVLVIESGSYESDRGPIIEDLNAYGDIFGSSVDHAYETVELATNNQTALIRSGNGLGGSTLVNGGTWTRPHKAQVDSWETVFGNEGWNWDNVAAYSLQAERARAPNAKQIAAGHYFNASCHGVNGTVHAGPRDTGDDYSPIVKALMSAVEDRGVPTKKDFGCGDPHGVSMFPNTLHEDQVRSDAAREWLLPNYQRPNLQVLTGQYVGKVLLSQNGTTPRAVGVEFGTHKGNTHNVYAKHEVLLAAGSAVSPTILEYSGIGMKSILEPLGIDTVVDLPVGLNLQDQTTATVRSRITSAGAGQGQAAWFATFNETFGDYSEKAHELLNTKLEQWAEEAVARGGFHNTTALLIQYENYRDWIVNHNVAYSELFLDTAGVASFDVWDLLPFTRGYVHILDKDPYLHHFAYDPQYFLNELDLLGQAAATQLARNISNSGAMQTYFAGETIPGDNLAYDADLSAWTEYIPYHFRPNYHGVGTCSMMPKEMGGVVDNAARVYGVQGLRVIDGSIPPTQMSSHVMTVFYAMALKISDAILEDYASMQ
Description: In these experiments, 100 mM Tris pH 8.3 with 0.005% TWEEN®-100 surfactant was used as a positive control. The choice of pH 8.3 was based upon the measured pH of the AATCC detergent. Three two-ml tubes containing 0.990 g of AATCC detergent (lot # 01282004) and another three tubes with 0.990 g of control buffer were weighed. Then, 90 mg (500 mM) glucose substrate was added to each tube. […] All of the tubes were placed on a rotary plate for an hour to allow good mixing and solubilization of glucose into the detergent. Then, 6 tubes containing five-ml wash water (5 mM HEPES with 6 GPG, pH 8) were prepared. Next, 500 PPM (0.5 mg, 14.88 ul) glucose oxidase (OXYGO™ L-5000, 5379 U/ml; 33.6 mg/ml; Genencor) was added to six 2-ml tubes (three with glucose/bisulfite containing control buffers and three with glucose/bisulfite containing AATCC detergent). All of the tubes were then set on the rotary plate (60 rpm) at room temperature. H2O2 production was measured using dipsticks (peroxidase/ABTS), as described in Example 1, for t=0+ minutes, 12 minutes, and 30 minutes. Immediately after addition of the enzyme to the detergent and control mixtures, 10 ul of the mixture were removed and mixed with 5 ml of wash water. All of the tubes were also then checked for hydrogen peroxide using dipsticks at 12 and 30 minutes. With 5 ml wash liquor, the final glucose oxidase enzyme concentration was 1 PPM and the glucose concentration was 1 mM.
In these experiments, 100 mM Tris pH 8.3 with 0.005% TWEEN®-100 surfactant was used as a positive control. The choice of pH 8.3 was based upon the measured pH of the AATCC detergent. Three two-ml tubes containing 0.990 g of AATCC detergent (lot # 01282004) and another three tubes with 0.990 g of control buffer were weighed. Then, 90 mg (500 mM) glucose substrate was added to each tube. Then, 100, 50, and 10 mM sodium metabisulfite were added to each tube respectively (i.e., both control buffer and AATCC detergent-containing tubes). All of the tubes were placed on a rotary plate for an hour to allow good mixing and solubilization of glucose into the detergent. Then, 6 tubes containing five-ml wash water (5 mM HEPES with 6 GPG, pH 8) were prepared. Next, 500 PPM (0.5 mg, 14.88 ul) glucose oxidase (OXYGO™ L-5000, 5379 U/ml; 33.6 mg/ml; Genencor) was added to six 2-ml tubes (three with glucose/bisulfite containing control buffers and three with glucose/bisulfite containing AATCC detergent). All of the tubes were then set on the rotary plate (60 rpm) at room temperature. H2O2 production was measured using dipsticks (peroxidase/ABTS), as described in the above Examples, for t=0+ minutes, 12 minutes, and 30 minutes. Immediately after addition of the enzyme to the detergent and control mixtures, 10 ul of the mixture were removed and mixed with 5 ml of wash water. All of the tubes were also then checked for hydrogen peroxide using dipsticks at 12 and 30 minutes. With 5 ml wash liquor, the final glucose oxidase enzyme concentration was 1 PPM and the glucose concentration was 1 mM.

[2] = target: T2, choline oxidase (Arthrobacter globiformis, UniProt Q7X2H8); experiment: H2O2 in control buffer or AATCC liquid detergent stock with choline oxidase, choline and inhibitor; settings: for H2O2 PPM: T = 0+, 12, 30 and 60, 1M choline chloride, 10U choline oxidase, 100 mM sodium bisulfite inhibitor (pH7)
T2 sequence (Q7X2H8 1-546): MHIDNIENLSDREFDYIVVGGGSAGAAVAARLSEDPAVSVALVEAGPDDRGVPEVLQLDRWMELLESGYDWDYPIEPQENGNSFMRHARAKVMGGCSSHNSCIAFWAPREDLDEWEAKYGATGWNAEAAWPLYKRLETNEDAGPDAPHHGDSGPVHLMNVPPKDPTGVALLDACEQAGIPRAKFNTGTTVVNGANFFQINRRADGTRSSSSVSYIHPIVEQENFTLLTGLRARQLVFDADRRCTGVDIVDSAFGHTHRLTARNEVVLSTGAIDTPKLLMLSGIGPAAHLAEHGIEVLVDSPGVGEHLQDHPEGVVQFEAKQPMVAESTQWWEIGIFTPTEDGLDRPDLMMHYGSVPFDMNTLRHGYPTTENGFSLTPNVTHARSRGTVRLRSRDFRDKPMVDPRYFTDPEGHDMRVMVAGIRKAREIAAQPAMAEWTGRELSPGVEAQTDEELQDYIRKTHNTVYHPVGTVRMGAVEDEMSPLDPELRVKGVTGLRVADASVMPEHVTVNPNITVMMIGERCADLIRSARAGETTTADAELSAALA
Description: In this Example, experiments conducted to assess the stabilization of choline oxidase in the presence of its substrate (i.e., choline) and an inhibitor (i.e., sodium bisulfite and 2-amino,2-methyl,1-propanol) is described. In these experiments, AATCC standard detergent was used.
(§1) The experiments were conducted as described in Example 1. Choline oxidase produces two moles of H2O2 per mole of choline. The results obtained in these experiments confirmed that choline oxidase was stable in AATCC detergent over 24 hour period tested in presence of choline and inhibitors. […] Upon dilution in wash liquor, detergent containing choline oxidase, choline chloride and an inhibitor (e.g., sodium hydrogen sulfite or 2-amino,2-methyl,1-propanol) produced H2O2 over time, as indicated in Table 5.

[3] = target: T2, choline oxidase; experiment: H2O2 in wash liquor with choline oxidase, choline chloride and inhibitor; settings: 2 mM choline chloride, 0.02U choline oxidase, 0.2 mM sodium bisulfite inhibitor (pH7)
Description: as §1

O=S([O-])O.[Na+] [bisulfite, sodium hydrogen sulfite]
Hydrogen Peroxide Generation, PPM H2O2 ([1]; AATCC Detergent, T = 12 (second line so headed, after the T = 30 lines), 0.2 mM bisulfite): ˜10 PPM
Hydrogen Peroxide Generation, PPM H2O2 ([1]; AATCC Detergent, T = 12 min, 0.02 mM bisulfite): 3 PPM
Hydrogen Peroxide Generation, PPM H2O2 ([1]; AATCC Detergent, T = 12 min, 0.1 mM bisulfite): 3 PPM
Hydrogen Peroxide Generation, PPM H2O2 ([1]; AATCC Detergent, T = 12 min, 0.2 mM bisulfite): 3 PPM
Hydrogen Peroxide Generation, PPM H2O2 ([1]; AATCC Detergent, T = 30 min, 0.02 mM bisulfite): 10 PPM
Hydrogen Peroxide Generation, PPM H2O2 ([1]; AATCC Detergent, T = 30 min, 0.1 mM bisulfite): ˜10 PPM
Hydrogen Peroxide Generation, PPM H2O2 ([1]; Control Buffer, T = 12 (second line so headed, after the T = 30 lines), 0.2 mM bisulfite): ˜3 PPM
Hydrogen Peroxide Generation, PPM H2O2 ([1]; Control Buffer, T = 30 min, 0.02 mM bisulfite): 10 PPM
Hydrogen Peroxide Generation, PPM H2O2 ([1]; Control Buffer, T = 30 min, 0.1 mM bisulfite): ˜10 PPM
character of glucose oxidase inhibition [1]: reversible inhibitor
hydrogen peroxide generated ([1]; wash liquor containing AATCC detergent, all three bisulfite inhibitor concentrations, 12 minutes): > 3 PPM
hydrogen peroxide generated ([1]; wash liquor with AATCC detergent, all three bisulfite inhibitor concentrations, 30 minutes): ~10 PPM
H2O2 PPM ([2]; AATCC Detergent): 0 PPM
H2O2 PPM ([2]; Control Buffer): 0 PPM
premature generation of H2O2 in AATCC detergent stock ([2]; sodium hydrogen sulfite 100 mM concentration): able to stop premature generation of H2O2
character of choline oxidase inhibition ([2]; sodium hydrogen sulfite at 100 mM concentration tested): reversible inhibitor
H2O2 PPM ([3]; AATCC Detergent, T = 0+): 1 PPM
H2O2 PPM ([3]; AATCC Detergent, T = 12 min): 10 PPM
H2O2 PPM ([3]; AATCC Detergent, T = 30 min): > 10 PPM
H2O2 PPM ([3]; AATCC Detergent, T = 60 min): 30 PPM
H2O2 PPM ([3]; Control Buffer, T = 0+): 1 PPM
H2O2 PPM ([3]; Control Buffer, T = 12 min): 10 PPM
H2O2 PPM ([3]; Control Buffer, T = 30 min): > 10 PPM
H2O2 PPM ([3]; Control Buffer, T = 60 min): 30 PPM

O=S([O-])S(=O)(=O)[O-].[Na+].[Na+] [sodium metabisulfite]
H2O2 PPM ([1]; AATCC Detergent, T = 12 min, 1 PPM enzyme, 0.2 mM sodium metabisulfite): 3 PPM
H2O2 PPM ([1]; AATCC Detergent, T = 30 min, 1 PPM enzyme, 0.2 mM sodium metabisulfite): ˜10 PPM
H2O2 PPM ([1]; AATCC Detergent, T = 60 min, 1 PPM glucose oxidase, 0.2 mM sodium metabisulfite): >10 PPM
H2O2 PPM ([1]; Control Buffer, T = 12 min, 1 PPM enzyme, 0.2 mM sodium metabisulfite (100 mM in formulation)): ~3 PPM
H2O2 PPM ([1]; Control Buffer, T = 12 min, 1 PPM enzyme, 0.2 mM sodium metabisulfite (100 mM in formulation), listed as sodium metabisulftie): 1 PPM
H2O2 PPM ([1]; Control Buffer, T = 30 min, 1 PPM enzyme, 0.2 mM sodium metabisulfite): 3 PPM
H2O2 PPM ([1]; Control Buffer, T = 60 min, 1 PPM glucose oxidase, 0.2 mM sodium metabisulfite): 10 PPM
character of glucose oxidase inhibition [1]: reversible inhibitor
hydrogen peroxide produced ([1]; 12 minutes): 3 PPM
hydrogen peroxide produced ([1]; 30 minutes): ~10 PPM
hydrogen peroxide generated ([1]; wash liquor containing AATCC detergent, all three metabisulfite inhibitor concentrations, 12 minutes): > 3 PPM
H2O2 generated ([1]; 10 mM metabisulfite (formulation), 12 minutes): about 10 PPM
H2O2 generated ([1]; 50 mM metabisulfite (formulation), 12 minutes): about 10 PPM
hydrogen peroxide generated ([1]; wash liquor with AATCC detergent, all three metabisulfite inhibitor concentrations, 30 minutes): ~10 PPM
